Assay results from patent US11029303B2, “PAH antibodies and uses thereof” (The Administrators of the Tulane Educational Fund, priority 2015, dated 2021).

Columns and labels:
[1] = biological target: T1, human aryl hydrocarbon receptor (AhR) (Homo sapiens, UniProt P35869); assay: Yeast bioassay of human AhR activation (YCM3 yeast, LacZ reporter); assay type: cell-based; details: for EC50: concentration inducing 50% of the activity of 100 μM phenanthrene, 18 hr, read-out: rEC50
T1 construct: host or cells: Saccharomyces cerevisiae strain YCM3 (derived from W303a), AhR and ARNT integrated on chromosome III under a galactose promoter
From the text: Cell culture. An engineered Saccharomyces cerevisiae yeast strain, YCM3, was used for the present study. YCM3 was derived from the W303a yeast strain and is made available to investigators through the American Type Culture Collection (ATCC, strain MYA-3637). Human Ah receptor and ARNT genes were inserted onto chromosome III under the control of galactose promoter. YCM3 was transformed with a LacZ reporter plasmid that is expressed upon interaction with ligand activated AHRC (FIG. 24). This modification process was described in a previous study (Fox et al., 2008). The yeast cells were maintained in a glucose-containing medium (0.67% yeast nitrogen base without amino acids, 2% glucose, supplemented with 0.01% uracil, adenine, leucine, and histidine), and the bioassay was performed in a galactose-containing medium (2% galactose substituted for glucose in the medium described herein). Medium components were purchased from Sigma Aldrich Chemical Company.
(§1) Yeast bioassay. The YCM3 yeast cells were diluted into the galactose medium to a final A600 nm of 0.04, plated into 96-well plates at 200 μl/well, and treated with various concentrations of PAHs for 18 hr at 30° C. During this time, the human AhR and aryl hydrocarbon receptor nuclear translocator (ARNT) were expressed in the presence of galactose and activated by PAH ligands in the cell to form the aryl hydrocarbon receptor complex (AHRC). After 18 hrs of incubation, yeast cells were suspended by pipetting, a 25 μl aliquot from each well was transferred into another 96-well assay plate and mixed with 225 μl substrate solution (60 mM Na2HPO4, 40 mM NaH2PO4, 1 mM MgCl2, 10 mM KCl, 0.2% sarkosyl, 1 mM dithiothreitol, and 0.4 mg/ml ortho-nitrophenyl-β-galactoside; pH, 7.0). The assay plate was incubated for ˜5 min at 37° C. and then 100 μl of a 1M Na2CO3 solution was added to stop the reaction and enhance the yellow color. Cell densities were determined from the first 96-well plate by measuring A600 nm and the color intensities of LacZ reactions determined by A405 nm from the corresponding wells of the second plate.
A450 sample is the measurement of a ligand-treated well at 405 nm absorbance and A450 empty is the measurement of a well that contains only medium and no cells. A600 sample is the measurement of yeast cell density of a ligand-treated well at 600 nm absorbance and A600 empty is the measurement of a well that contains only medium and no cells. Cell volume is the amount of cell suspension added per well in ml (for example 0.025 ml) and reaction time is the time period of the colorimetric reaction (for example 5 min). The lacZ units were calculated as a percentage relative to the positive control (β-naphthaflavone signal set as 100%), and the dose response curves were fitted using SlideWrite program (version 7.01, Advanced Graphics Software, Inc.) using the 2 parameter curve: y=m+a0*x/(a1+x) (2) where m=LacZDMSO value from the assay plate, a0=maximum effect and a1=half maximum effective concentrations (EC50).
Relative EC50 and EC25 (rEC50 and rEC25) values were further introduced to compare potencies of various methylated phenanthrenes. rEC50 and rEC25 were defined as the concentrations of the total PAH at which the AhR was activated to 50% or 25% of the activation observed in the 100 μM phenanthrene control, respectively. The 100 μM concentration was chosen because it was the maximum that can be achieved in the assay. The rEC50 and rEC25 and the errors associated with these values were calculated from the fitted curves. Specifically, the LacZ value corresponding to 50% or 25% of this value was calculated according to the following equations: y(EC50)=[lacZ(100 uM Phen)+LacZ(1% DMSO)]/2 (3) y(EC25)=[lacZ(100 uM Phen)+3*LacZ(1% DMSO)]/4 (4)
These calculated y values and the a0 and a1 values from the curve fits were then used to solve for x in equation (2) above. These x values represent the mean of rEC50 or rEC25 from the fitted curve. […]

marine fish = details: larvae of marine fish; cited from earlier work
YCM3 yeast cells = assay: Toxicity to yeast cells in the yeast bioassay (inhibition of cell accumulation); assay type: cell-based, Saccharomyces cerevisiae; details: up to 100 μM
Description: as §1, with “The assay plate was incubated for ˜5 min at 37° C. and then 100 μl of a 1M Na2CO3 solution was added to stop the reaction and enhance the yellow color.” left out
During the induction process, YCM3 yeast cells were incubated with varying concentrations of phenanthrene and its methylated derivatives and their signaling activities were measured via a colorimetric substrate. […] Differences in cell growth at the end of the 18 hr incubation period were normalized by measuring each culture's absorbance at 600 nm.

[2] = crystal; cited from earlier work

T1 sequence (P35869 11-848): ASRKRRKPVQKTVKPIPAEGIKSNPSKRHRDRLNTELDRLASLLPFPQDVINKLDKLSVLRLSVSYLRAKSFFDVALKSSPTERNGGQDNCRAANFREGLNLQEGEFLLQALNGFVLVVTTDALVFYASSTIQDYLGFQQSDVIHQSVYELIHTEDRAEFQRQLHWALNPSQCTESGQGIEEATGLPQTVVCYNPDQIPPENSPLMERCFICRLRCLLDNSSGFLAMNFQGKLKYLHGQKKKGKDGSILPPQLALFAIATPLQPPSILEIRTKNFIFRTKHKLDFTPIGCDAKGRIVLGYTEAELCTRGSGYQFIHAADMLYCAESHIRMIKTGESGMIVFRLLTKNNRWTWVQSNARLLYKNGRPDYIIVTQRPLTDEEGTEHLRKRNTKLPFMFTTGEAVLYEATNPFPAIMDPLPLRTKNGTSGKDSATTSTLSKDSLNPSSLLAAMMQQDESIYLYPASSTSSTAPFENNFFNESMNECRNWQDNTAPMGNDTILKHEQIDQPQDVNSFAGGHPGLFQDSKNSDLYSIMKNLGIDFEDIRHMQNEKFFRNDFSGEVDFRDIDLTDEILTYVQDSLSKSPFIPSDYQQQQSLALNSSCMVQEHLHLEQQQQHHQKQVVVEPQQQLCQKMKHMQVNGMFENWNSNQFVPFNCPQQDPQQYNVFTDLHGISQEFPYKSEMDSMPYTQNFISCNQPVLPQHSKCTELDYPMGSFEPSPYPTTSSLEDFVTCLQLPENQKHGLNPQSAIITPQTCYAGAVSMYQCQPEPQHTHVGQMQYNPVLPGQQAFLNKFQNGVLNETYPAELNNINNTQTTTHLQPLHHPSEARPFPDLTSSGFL
T1 sequence (P27540 whole entry partner): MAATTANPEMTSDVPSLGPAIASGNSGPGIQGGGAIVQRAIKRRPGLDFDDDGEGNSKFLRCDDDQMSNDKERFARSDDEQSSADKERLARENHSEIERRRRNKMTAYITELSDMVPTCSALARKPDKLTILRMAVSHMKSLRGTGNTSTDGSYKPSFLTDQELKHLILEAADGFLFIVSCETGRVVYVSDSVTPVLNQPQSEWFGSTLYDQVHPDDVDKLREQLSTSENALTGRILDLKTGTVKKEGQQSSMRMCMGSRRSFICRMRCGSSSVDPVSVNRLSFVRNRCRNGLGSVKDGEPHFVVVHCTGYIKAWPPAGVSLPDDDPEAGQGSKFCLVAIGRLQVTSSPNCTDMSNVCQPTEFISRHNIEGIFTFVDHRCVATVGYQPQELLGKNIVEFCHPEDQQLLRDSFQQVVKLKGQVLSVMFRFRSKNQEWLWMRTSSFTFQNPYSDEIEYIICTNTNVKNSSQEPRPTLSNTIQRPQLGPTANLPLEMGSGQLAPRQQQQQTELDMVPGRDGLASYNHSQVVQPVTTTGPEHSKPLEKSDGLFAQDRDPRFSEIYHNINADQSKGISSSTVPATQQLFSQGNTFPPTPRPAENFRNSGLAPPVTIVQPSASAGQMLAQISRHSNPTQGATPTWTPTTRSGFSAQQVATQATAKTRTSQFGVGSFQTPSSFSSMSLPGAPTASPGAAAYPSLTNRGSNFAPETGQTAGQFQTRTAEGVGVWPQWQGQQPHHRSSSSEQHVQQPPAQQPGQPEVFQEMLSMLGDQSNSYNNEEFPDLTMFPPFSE

Cc1cccc2c1ccc1ccccc12 [Clone 1-MP, 1-methylphenanthrene]
concentration at which maximal response was reached [1]: ~40 µM
EC50 [1]: 4 µM
Emax at 18 h ([1]; human, 1 μM BNF set as 100%, read-out: maximal response): 109%

Cc1ccc2c(ccc3ccccc32)c1 [Clone 2-MP, 2-methylphenanthrene]
EC50 [1]: 4.6 µM

Cc1cccc2c1ccc1cc(C(C)C)ccc12 [retene, 7-isopropyl-1-methylphenanthrene]
toxicity in vivo (marine fish): greater toxicity than unsubstituted phenanthrene

Cc1ccc2ccc3ccccc3c2c1 [Clone 3-MP, 3-methylphenanthrene]
EC50 [1]: 5.8 µM

Cc1cc2ccccc2c2ccccc12 [Clone 9-MP, 9-methylphenanthrene]
toxicity to the yeast cells (YCM3 yeast cells): less toxic to the yeast cells

Cc1ccc2ccc3ccc(C)cc3c2c1 [3,6-DMP, 3,6-dimethylphenanthrene]
rEC50 comparison (ANOVA post-test) [1]: significantly more potent that 4-MP
rEC25 comparison (ANOVA post-test) ([1]; 25% of the activity of 100 μM phenanthrene): significantly more potent than the 3-, 4- and 9-MPs
response achieved in the assay ([1]; dose-response curve up to 100 μM): up to 50%

c1ccc2c(c1)ccc1ccccc12 [phenanthrene]
solubility lower than biphenyl [2]: 1000 fold
toxicity to the yeast cells (YCM3 yeast cells): less toxic to the yeast cells
